“And” between values parts separate entries of the source, which are not always exact repeats. Identical values can stand only once. “Also recorded” adds a separate entry of the source.
Tests used:
[1] = system: Succinate Dehydrogenase B (SDHB); assay: Western blot of Succinate Dehydrogenase subunit B in mitochondrial preparations; assay type: cell-based; conditions: mitochondrial preparations of cancer cells
Protocol: The above blots were stripped by incubating for 30 minutes with methanol, followed by two 10 minute washes with TBS-T, then 30 minutes of incubation with Stripping buffer at 50 deg C., and followed by two washes with 100 ml or more of TBS-T for 30′ each. The blots were scanned in laser scanner to check for complete stripping. The blots were activated with methanol for 5 seconds, washed with water for 5 minutes, and TBST for 15 minutes. The blots were blocked for 1 hour with 5% blocking reagent in TBS-T at room temperature and then washed 3 times with TBS-T (1×-15′; 2×5′ each) and probed with the primary antibody for PKM2, SDHB or SDHC in 5% BSA in TBS-T by incubation overnight at 4 deg C. with gentle shaking. The primary antibody for SDHC (ABNOVA H00006391-M02; antimouse) was at 1:500 dilution. The primary antibody for SDHB was from Abcam ab4714-200; antimouse; at 1:1000 dilution. The primary antibody for Pyruvate Kinase M2 (PKM2) was from Novus Biologicals H00005315-DOIP; antirabbit; at 1:500 dilution. After incubation with primary antibodies, the membranes were washed 3 times with TBS-T (1×-15′; 2×5′ each) and probed with the secondary antibody (SDHB & C antimouse; and PKM2 antirabbit; 1:10,000 dilution) for 1 hon the orbital tilting shaker at room temperature. […]

variety of cell types = assay: Western blot analysis (Bcl-xL, Vimentin, oxidative phosphorylation complexes, mitochondrial membrane integrity proteins); assay type: cell-based; conditions: 50 or 100 μM Q10
Protocol: Approximately 50 μg of protein were assayed per sample by immunoblotting. All treatments were run in triplicate with controls. […] The primary antibodies were incubated overnight at 4 degrees C. in a 5% BSA and TBST solution. Secondary antibodies were incubated for one hour at 4 degrees. All antibodies were purchased from Cell Signaling Technology. Antibodies were used at a ratio of 1:1000, with the exception of βActin at a ratio of 1:5000. Blots were developed and results were quantified using the NIH Java based densitometer analysis software Image J. All blots were also probed for and normalized to their respective βActin expression.
The first experiment processed and evaluated by Western blot and 2-D gel electrophoresis was carried out on the skin cancer cell line SKMEL-28.
A variety of cell types were evaluated by Western blot analysis against an antibody for Bcl-xL (FIG. 14), an antibody for Vimentin (FIG. 15), a series of antibodies for mitochondrial oxidative phosphorylation function (FIGS. 16-21) and against a series of antibodies related to mitochondrial membrane integrity (FIGS. 22-27).

HK-2 cells = assay: Mitochondria PCR arrays in cell model for diabetes; assay type: cell-based, human; conditions: HK-2(H) 22 mM glucose
Protocol: (§1) The HK-2 and HASMC cells are normally maintained in culture at 5.5 mM glucose, which is a concentration that corresponds to a range considered normal in human blood. However, in order to simulate a diabetic environment, both cell lines were subsequently maintained at 22 mM glucose, which corresponds to the range observed in human blood associated with chronic hyperglycemia. The cells were subsequently allowed to propagate over 3 passages so that the intracellular regulation processes were functionally adapted to mimic a diabetic state. The choice of cell line was based on the physiologic influence of diabetes on renal dysfunction and progression to end-stage renal disease (ESRD) in addition to the progressive pathophysiology of a compromised cardiovascular function.
(§2) Differential expression of mitochondrial genes in diabetes was assayed using the mitochondria arrays (Cat#PAHS 087E, SABisociences Frederick Md.).

HASMC cells = assay: Mitochondria PCR arrays in cell model for diabetes; assay type: cell-based, human; conditions: HASMC-(H) 22 mM glucose
Protocol: as §1, §2

SK-MEL-28 mitochondria [2] = assay: LC-MS/MS quantification of Q10 and Q10H2 in mitochondrial enriched samples; assay type: cell-based; conditions: for Peak Area Q10: 20% injection
Protocol: Ten μl of each sample was injected.

key proteins = assay: Summary of key proteins modulated by Q10
SK-MEL-28 mitochondria [3] = system: SK-MEL-28 mitochondria
Protocol: The cells were harvested by washing and scraping the cells from T-160 flasks (4 for each time point). The cells were collected by centrifugation and the pellets flash frozen and stored at −80° C. The cell pellets were resuspended and ruptured using a 2 mL Dounce homogenizer. The reagents and method were obtained from a Mitochondria Isolation Kit for Cultured Cells (MitoSciences, Cat #MS852). The resultant mitochondria samples were divided into 75 μL aliquots (4-5 aliquots per sample) and stored at −80° C.
The samples were subjected to 2-D electrophoresis (in duplicate). Analysis of 525 protein spots in the comparative study was performed, comparing the control samples against the other time point samples (FIG. 11).

COC1=C(OC)C(=O)C(C/C=C(\C)CC/C=C(\C)CC/C=C(\C)CC/C=C(\C)CC/C=C(\C)CC/C=C(\C)CC/C=C(\C)CC/C=C(\C)CC/C=C(\C)CCC=C(C)C)=C(C)C1=O [Q10, Coenzyme Q10]
SDH protein levels in the mitochondrion [1]: increase SDH protein levels | levels of examined proteins (Western blot) (variety of cell types): several of the examined proteins were upregulated or downregulated | GRPEL1 gene regulation (mitochondria array) (HK-2 cells; 50 μM Coenzyme Q10): −2.6512 | SLC25A3 gene regulation (mitochondria array) (HK-2 cells; 50 μM Coenzyme Q10): −8.2059 | TOMM40 gene regulation (mitochondria array) (HK-2 cells; 50 μM Coenzyme Q10): −1.1567 | TSPO gene regulation (mitochondria array) (HK-2 cells; 50 μM Coenzyme Q10): −6.7583 | GRPEL1 gene regulation (mitochondria array) (HK-2 cells; 100 μM Coenzyme Q10): −1.933 | SLC25A3 gene regulation (mitochondria array) (HK-2 cells; 100 μM Coenzyme Q10): −1.6984 | TOMM40 gene regulation (mitochondria array) (HK-2 cells; 100 μM Coenzyme Q10): −1.9509 | TSPO gene regulation (mitochondria array) (HK-2 cells; 100 μM Coenzyme Q10): −2.1104 | BCL2L1 gene regulation (mitochondria array) (HASMC cells; 50 uM Coenzyme Q10): −2.7863 | MFN1 gene regulation (mitochondria array) (HASMC cells; 50 uM Coenzyme Q10): −1.2585 | PMAIP1 gene regulation (mitochondria array) (HASMC cells; 50 uM Coenzyme Q10): −6.8132 | SLC25A1 gene regulation (mitochondria array) (HASMC cells; 50 uM Coenzyme Q10): −1.834 | SLC25A13 gene regulation (mitochondria array) (HASMC cells; 50 uM Coenzyme Q10): −1.5 | SLC25A19 gene regulation (mitochondria array) (HASMC cells; 50 uM Coenzyme Q10): −1.4257 | SLC25A22 gene regulation (mitochondria array) (HASMC cells; 50 uM Coenzyme Q10): −1.9839 | TIMM44 gene regulation (mitochondria array) (HASMC cells; 50 uM Coenzyme Q10): −2.3214 | TOMM40 gene regulation (mitochondria array) (HASMC cells; 50 uM Coenzyme Q10): −2.0922 | TSPO gene regulation (mitochondria array) (HASMC cells; 50 uM Coenzyme Q10): −2.0586 | BCL2L1 gene regulation (mitochondria array) (HASMC cells; 100 μM Coenzyme Q10): −2.3001 | MFN1 gene regulation (mitochondria array) (HASMC cells; 100 μM Coenzyme Q10): −2.2632 | PMAIP1 gene regulation (mitochondria array) (HASMC cells; 100 μM Coenzyme Q10): −4.352 | SLC25A1 gene regulation (mitochondria array) (HASMC cells; 100 μM Coenzyme Q10): −3.0001 | SLC25A13 gene regulation (mitochondria array) (HASMC cells; 100 μM Coenzyme Q10): −1.5245 | SLC25A19 gene regulation (mitochondria array) (HASMC cells; 100 μM Coenzyme Q10): −2.1214 | SLC25A22 gene regulation (mitochondria array) (HASMC cells; 100 μM Coenzyme Q10): −10.3747 | TIMM44 gene regulation (mitochondria array) (HASMC cells; 100 μM Coenzyme Q10): −1.9931 | TOMM40 gene regulation (mitochondria array) (HASMC cells; 100 μM Coenzyme Q10): −2.2684 | TSPO gene regulation (mitochondria array) (HASMC cells; 100 μM Coenzyme Q10): −2.3647 | increase in mitochondrial Q10 levels (SK-MEL-28 mitochondria [2]; 100 μM Q10, 19 hours, vs untreated): ~3 fold | increase in mitochondrial Q10H2 levels (SK-MEL-28 mitochondria [2]; 100 μM Q10, 48 hour sample, near detection limit): 3 fold | Peak Area Q10 (SK-MEL-28 mitochondria [2]; 100 μM Q10 in the media, 6 hr): 25427 | Peak Area Q10 (SK-MEL-28 mitochondria [2]; 100 μM Q10 in the media, 19 hr): 59164 | Q10H2 (reduced form) in mitochondrial enriched sample (SK-MEL-28 mitochondria [2]; 100 μM Q10 in the media, 48 hr): 0.28 ng/Sample | Peak Area Q10 (SK-MEL-28 mitochondria [2]; 100 μM Q10 in the media, 48 hr): 164496 | form of Q10 in mitochondria (oxidized vs reduced) (SK-MEL-28 mitochondria [2]; exogenous addition of Q10 to the media): maintained in the supplied oxidized form | Key proteins modulated: Apoptotic response (key proteins): Bcl-xl, Bcl-xS, BNIP-2, Bcl-2, Birc6,; also recorded: Bcl-2-L11 (Bim), XIAP, BRAF, Bax,; also recorded: c-Jun, Bmf, PUMA, cMyc | Key proteins modulated: Biosynthetic pathway (key proteins): COQ1, COQ3, COQ6, prenyltransferase, and 4-hydroxybenzoate | Key proteins modulated: Oxidative phosphorylation metabolism (key proteins): Cytochrome c, complex I, complex II,; also recorded: complex III, complex IV, | Key proteins modulated: Pentose Phosphate Pathway (key proteins): transaldolase 1 | Key proteins modulated: Transcription factors (key proteins): HNF4alpha | Response at later time points (19, 48 hr) (SK-MEL-28 mitochondria [3]; 100 μM Q10): drops more for 19; also recorded: back to normal at 48; also recorded: Up at 19 and 48 hr; also recorded: Up only at 19 hr; also recorded: drop to low levels | Response (direction) at 6 hr (SK-MEL-28 mitochondria [3]; 100 μM Q10, 6 hr): Down and Up
